Results as given in BindingDB's records for doi:10.1016/0960-894X(95)00361-V (Sphinx Pharmaceuticals, 1995).

Key:
Assay in all cases: PKC assay
[1] = molecular target: Protein kinase C delta type (Homo sapiens, UniProt Q05655)
Method: (§1) The activity of PKC, activated by phosphatidylerine and Ca2+, is measured by its ability to transfer phosphate from [gamma-32P]ATP to lysine-rich histone.

[2] = molecular target: T1, Protein kinase C epsilon type (Homo sapiens, UniProt Q02156)
T1 sequence (Q02156 whole entry): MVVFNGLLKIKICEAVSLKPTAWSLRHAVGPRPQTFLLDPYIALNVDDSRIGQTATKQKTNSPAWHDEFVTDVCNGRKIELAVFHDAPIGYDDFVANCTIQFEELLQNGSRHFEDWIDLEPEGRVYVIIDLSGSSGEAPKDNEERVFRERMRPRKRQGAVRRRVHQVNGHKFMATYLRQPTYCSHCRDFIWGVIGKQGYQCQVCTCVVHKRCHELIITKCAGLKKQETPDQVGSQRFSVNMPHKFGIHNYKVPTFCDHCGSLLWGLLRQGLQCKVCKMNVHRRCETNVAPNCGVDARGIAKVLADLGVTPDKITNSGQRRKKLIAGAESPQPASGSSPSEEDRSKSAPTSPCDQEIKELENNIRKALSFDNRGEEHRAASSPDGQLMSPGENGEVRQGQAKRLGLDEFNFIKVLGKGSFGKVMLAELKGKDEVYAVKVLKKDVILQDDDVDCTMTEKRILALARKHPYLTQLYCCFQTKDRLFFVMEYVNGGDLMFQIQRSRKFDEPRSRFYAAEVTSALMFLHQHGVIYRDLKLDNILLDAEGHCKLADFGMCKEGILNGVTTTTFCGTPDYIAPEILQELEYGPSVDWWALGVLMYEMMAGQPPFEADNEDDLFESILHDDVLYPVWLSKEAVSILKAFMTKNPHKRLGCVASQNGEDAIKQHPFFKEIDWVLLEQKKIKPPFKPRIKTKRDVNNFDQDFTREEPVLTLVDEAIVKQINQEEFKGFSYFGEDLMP
Method: as §1

[3] = molecular target: Protein kinase C alpha type (Homo sapiens, UniProt P17252)
Method: as §1

[4] = molecular target: Protein kinase C beta type (Homo sapiens, UniProt P05771)
Protein kinase C beta type, sequence (P05771 whole entry): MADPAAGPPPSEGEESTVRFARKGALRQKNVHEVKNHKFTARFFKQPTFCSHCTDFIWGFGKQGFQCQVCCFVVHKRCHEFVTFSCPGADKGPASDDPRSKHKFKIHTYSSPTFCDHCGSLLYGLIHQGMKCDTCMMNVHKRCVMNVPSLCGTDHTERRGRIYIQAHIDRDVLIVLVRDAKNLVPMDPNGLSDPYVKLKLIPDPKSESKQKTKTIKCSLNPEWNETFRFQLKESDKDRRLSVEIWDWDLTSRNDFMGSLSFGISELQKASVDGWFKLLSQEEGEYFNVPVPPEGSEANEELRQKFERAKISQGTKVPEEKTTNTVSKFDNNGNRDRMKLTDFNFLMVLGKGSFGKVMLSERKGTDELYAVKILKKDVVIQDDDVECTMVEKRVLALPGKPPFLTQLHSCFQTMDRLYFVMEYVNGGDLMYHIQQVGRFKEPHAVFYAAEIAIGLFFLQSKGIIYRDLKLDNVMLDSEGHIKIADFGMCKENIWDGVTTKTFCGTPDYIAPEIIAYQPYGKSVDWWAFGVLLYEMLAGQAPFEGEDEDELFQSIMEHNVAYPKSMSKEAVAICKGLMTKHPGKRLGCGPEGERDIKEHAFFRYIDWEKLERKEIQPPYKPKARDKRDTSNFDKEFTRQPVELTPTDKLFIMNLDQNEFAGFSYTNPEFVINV
Method: as §1

[5] = molecular target: Protein kinase C eta type (Homo sapiens, UniProt P24723)
Protein kinase C eta type, sequence (P24723 whole entry): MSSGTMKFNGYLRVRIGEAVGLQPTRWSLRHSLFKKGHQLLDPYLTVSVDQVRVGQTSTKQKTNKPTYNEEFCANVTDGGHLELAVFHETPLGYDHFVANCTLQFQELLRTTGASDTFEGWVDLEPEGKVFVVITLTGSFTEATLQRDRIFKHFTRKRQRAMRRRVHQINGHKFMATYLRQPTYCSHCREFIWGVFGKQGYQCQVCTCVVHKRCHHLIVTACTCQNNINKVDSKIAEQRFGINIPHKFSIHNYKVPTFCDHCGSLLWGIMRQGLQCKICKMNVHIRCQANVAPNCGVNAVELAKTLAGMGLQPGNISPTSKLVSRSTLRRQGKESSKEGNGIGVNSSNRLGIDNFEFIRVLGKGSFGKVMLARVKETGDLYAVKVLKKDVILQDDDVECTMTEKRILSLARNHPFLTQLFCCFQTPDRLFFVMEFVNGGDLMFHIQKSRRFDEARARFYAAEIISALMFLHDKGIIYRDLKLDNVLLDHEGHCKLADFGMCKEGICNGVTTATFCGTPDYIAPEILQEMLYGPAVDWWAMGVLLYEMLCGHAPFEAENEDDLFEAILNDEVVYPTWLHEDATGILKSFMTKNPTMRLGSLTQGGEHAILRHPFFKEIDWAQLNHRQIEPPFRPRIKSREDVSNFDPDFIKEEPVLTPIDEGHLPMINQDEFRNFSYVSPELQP
Method: as §1

Protein kinase C delta type, sequence (Q05655 whole entry): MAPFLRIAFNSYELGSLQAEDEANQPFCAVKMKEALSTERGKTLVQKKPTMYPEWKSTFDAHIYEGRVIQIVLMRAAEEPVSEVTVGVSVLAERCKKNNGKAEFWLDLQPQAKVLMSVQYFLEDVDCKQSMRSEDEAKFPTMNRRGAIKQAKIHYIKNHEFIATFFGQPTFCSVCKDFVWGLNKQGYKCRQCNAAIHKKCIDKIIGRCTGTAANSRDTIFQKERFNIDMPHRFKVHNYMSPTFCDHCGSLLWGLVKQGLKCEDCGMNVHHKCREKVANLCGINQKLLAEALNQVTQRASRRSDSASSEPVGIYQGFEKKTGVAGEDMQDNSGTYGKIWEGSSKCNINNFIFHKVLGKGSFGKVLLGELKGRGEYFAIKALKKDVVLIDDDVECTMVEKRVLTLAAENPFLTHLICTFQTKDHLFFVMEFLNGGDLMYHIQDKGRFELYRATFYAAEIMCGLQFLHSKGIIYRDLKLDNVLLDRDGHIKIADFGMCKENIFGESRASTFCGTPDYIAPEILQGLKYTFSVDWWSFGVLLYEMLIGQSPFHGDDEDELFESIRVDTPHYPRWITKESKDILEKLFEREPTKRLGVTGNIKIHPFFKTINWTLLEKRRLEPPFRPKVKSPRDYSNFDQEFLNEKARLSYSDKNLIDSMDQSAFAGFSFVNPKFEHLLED

Row | IC50 [1] [nM] | IC50 [2] [nM] | IC50 [3] [nM] | IC50 [4] [nM] | IC50 [5] [nM] | Compound
1 | 250 | 20000 | 4200 | 1800 | 400 | COC(=O)c1cccc(O)c1Oc1c(O)cc(C(=O)O[C@H]2CCC[C@@H]2NC(=O)c2ccc(O)cc2)cc1O [(1S,2S)-2-[(4-hydroxybenzene)amido]cyclopentyl 3,5-dihydroxy-4-[2-hydroxy-6-(methoxycarbonyl)phenoxy]benzoate]
2 | 5 | 300 | 210 | 40 | 4 | COC(=O)c1cccc(O)c1Oc1c(O)cc(C(=O)O[C@@H]2CCC[C@H]2NC(=O)c2ccc(O)cc2)cc1O [(1R,2R)-2-[(4-hydroxybenzene)amido]cyclopentyl 3,5-dihydroxy-4-[2-hydroxy-6-(methoxycarbonyl)phenoxy]benzoate]
